Data as given in patent US8586318B2, “Restricted access media and methods for making restricted access media” (Board of Regents of the University of Nebraska, priority 2008, dated 2013).

Legend:
[1] = tested on: anti-fluorescein antibodies; assay: Ultrafast extraction on anti-fluorescein RAM column, flow-based; assay type: binding, mouse
Procedure: For chromatographic studies, 200 μL injections of samples containing 0.5 nM fluorescein or 3 nM of fluorescein-BSA were made at flow rates ranging from 0.1-1.0 mL/min. The injections were performed at room temperature using 0.067 M potassium phosphate buffer (pH 7.4) as the application buffer. Two or three replicate injections were made at each flow rate onto columns containing the anti-fluorescein IA-RAM support or the corresponding control support. […] The fraction of extracted fluorescein was calculated by comparing the areas of the non-retained peaks to those obtained using a control column. […] The retained species were eluted between studies by washing the column with a 0.067 M potassium phosphate buffer (pH 2.5) for 20 minutes. Elution was followed by a column regeneration step by applying 0.067 M phosphate application buffer (pH 7.4) for 10 minutes before each new sample injection. The RAM, specifically an IA-RAM made using anti-fluorescein antibody, was tested for use in a flow-based system for the selective, ultrafast extraction of fluorescein versus a fluorescein-BSA conjugate. This was accomplished by comparing the results obtained with a RAM column to results for a control column containing only diol silica.

[2] = tested on: anti-fluorescein antibodies; assay: Static binding of fluorescein or fluorescein-BSA to anti-fluorescein RAM support; design: species or system mouse; settings: 100 Å silica
Procedure: The binding properties of the anti-fluorescein IA-RAM support were initially determined before and after digestion by reacting this support with a known excess of fluorescein (sodium salt, MW=376 Da) or fluorescein-BSA conjugate (average MW=69.5 kDa). Studies were performed using anti-fluorescein antibodies covalently linked to Nucleosil Si-100 using the hydrazide-activation method. A 2 mg portion of the desired anti-fluorescein support was incubated with shaking in 1 mL of a 0.040 μg/mL fluorescein solution or 1 mL of 20 μg/mL fluorescein-BSA solution in 0.1 M potassium phosphate buffer (pH 7.4) at 4° C. for 30 minutes. The mixtures were centrifuged and the supernatant was analyzed for fluorescein or fluorescein-BSA content based on the fluorescence of the solutions. Standard solutions that contained 0.002-2.0 μg/mL fluorescein or 1-30 μg/mL of the fluorescein-BSA conjugate in 0.10 M potassium phosphate buffer (pH 7.4) were also analyzed. The amount of fluorescein or fluorescein-BSA bound to the anti-fluorescein IA-RAM supports was determined by comparing the final and initial concentrations of fluorescein or fluorescein-BSA that remained in solution. […] The fluorescein or fluorescein-BSA that was bound by anti-fluorescein antibodies was determined by determining the amount of the analytes that remained in solution after the incubation step.

original binding capacity of the covalently linked antibodies ([2]; before papain treatment, hydrazide method, 30 minutes incubation): 0.69 (±0.01) mg/g silica
decrease of binding capacity after treatment with papain ([2]; papain 90 minutes at 37° C., 1:100 (w/w)): 92%
Substance: fluorescein-BSA conjugate: fluorescein conjugate of bovine serum albumin, prepared using fluorescein isothiocyanate, 12 mol fluorescein/mol protein
retention on anti-fluorescein RAM column (in words) ([1]; injected at 0.1 mL/min): no significant degree of binding
extracted by anti-fluorescein RAM support ([1]; same conditions as used for fluorescein): less than 1%
